Data published in the supplement of paper PMC10307832.

Assays:
Test in all cases: relative viability (nuclei count vs DMSO), 5 days (fraction); higher = more cells survive
NCI-H322M = system: NCI-H322M
How it was run: (§1)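 Lung cancer cell lines in 1536-well plates were dosed by pin tool the day after seeding, either with one drug alone or with a fixed anchor-drug dose plus five library-drug doses (not always all listed) in √10 steps. After 5 days, cells were fixed and their nuclei stained in one step (final 0.05% Triton X-100, 1% formaldehyde, 1 ug/ml Hoechst), then counted on 4× images. Relative viability is the nuclei count in treated wells divided by that in vehicle wells. Values are medians of duplicate plates.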

EKVX = system: EKVX
How it was run: as §1

NCI-H2405 = system: NCI-H2405
How it was run: as §1

NCI-H661 = system: NCI-H661
How it was run: as §1

ABC-1 = system: ABC-1
How it was run: as §1

LK-2 = system: LK-2
How it was run: as §1

NCI-H2228 = system: NCI-H2228
How it was run: as §1

NCI-H1734 = system: NCI-H1734
How it was run: as §1

CAL-12T = system: CAL-12T
How it was run: as §1

SW 1573 = system: SW 1573
How it was run: as §1

NCI-H2342 = system: NCI-H2342
How it was run: as §1

NCI-H520 = system: NCI-H520
How it was run: as §1

COR-L23 = system: COR-L23
How it was run: as §1

NCI-H1355 = system: NCI-H1355
How it was run: as §1

PC-14 = system: PC-14
How it was run: as §1

HCC-827 = system: HCC-827
How it was run: as §1

RERF-LC-KJ = system: RERF-LC-KJ
How it was run: as §1

NCI-H1437 = system: NCI-H1437
How it was run: as §1

NCI-H1650 = system: NCI-H1650
How it was run: as §1

H3255 = system: H3255
How it was run: as §1

HCC-15 = system: HCC-15
How it was run: as §1

PC-3 [JPC-3] = system: PC-3 [JPC-3]
How it was run: as §1

O=C(O)c1ccc(-c2c[nH]c3ncc(-c4ccccc4)cc23)cc1C1CCCC1 + O=C(c1cc(Cc2n[nH]c(=O)c3ccccc23)ccc1F)N1CCN(C(=O)C2CC2)CC1 [Olaparib] (partner 8 µM)
relative viability (NCI-H322M; first compound 0.04 µM): 0.856
relative viability (NCI-H322M; first compound 0.1265 µM): 0.718
relative viability (NCI-H322M; first compound 0.4 µM): 0.661
relative viability (NCI-H322M; first compound 1.265 µM): 0.554
relative viability (EKVX; first compound 0.04 µM): 0.88
relative viability (EKVX; first compound 0.1265 µM): 0.931
relative viability (EKVX; first compound 0.4 µM): 0.866
relative viability (EKVX; first compound 1.265 µM): 0.657
relative viability (NCI-H2405; first compound 0.04 µM): 0.823
relative viability (NCI-H2405; first compound 0.1265 µM): 0.951
relative viability (NCI-H2405; first compound 0.4 µM): 0.778
relative viability (NCI-H2405; first compound 1.265 µM): 0.584
relative viability (NCI-H661; first compound 0.04 µM): 0.698
relative viability (NCI-H661; first compound 0.1265 µM): 0.772
relative viability (NCI-H661; first compound 0.4 µM): 0.744
relative viability (NCI-H661; first compound 1.265 µM): 0.656
relative viability (ABC-1; first compound 0.04 µM): 1.03
relative viability (ABC-1; first compound 0.1265 µM): 0.726
relative viability (ABC-1; first compound 0.4 µM): 0.611
relative viability (ABC-1; first compound 1.265 µM): 1.1
relative viability (LK-2; first compound 0.04 µM): 0.734
relative viability (LK-2; first compound 0.1265 µM): 0.641
relative viability (LK-2; first compound 0.4 µM): 0.636
relative viability (LK-2; first compound 1.265 µM): 0.648
relative viability (NCI-H2228; first compound 0.04 µM): 0.728
relative viability (NCI-H2228; first compound 0.1265 µM): 0.645
relative viability (NCI-H2228; first compound 0.4 µM): 0.626
relative viability (NCI-H2228; first compound 1.265 µM): 0.309
relative viability (NCI-H1734; first compound 0.04 µM): 0.562
relative viability (NCI-H1734; first compound 0.1265 µM): 0.736
relative viability (NCI-H1734; first compound 0.4 µM): 0.568
relative viability (NCI-H1734; first compound 1.265 µM): 0.495
relative viability (CAL-12T; first compound 0.04 µM): 0.656
relative viability (CAL-12T; first compound 0.1265 µM): 0.668
relative viability (CAL-12T; first compound 0.4 µM): 0.566
relative viability (CAL-12T; first compound 1.265 µM): 0.379
relative viability (SW 1573; first compound 0.04 µM): 0.527
relative viability (SW 1573; first compound 0.1265 µM): 0.528
relative viability (SW 1573; first compound 0.4 µM): 0.427
relative viability (SW 1573; first compound 1.265 µM): 0.341
relative viability (NCI-H2342; first compound 0.04 µM): 0.456
relative viability (NCI-H2342; first compound 0.1265 µM): 0.445
relative viability (NCI-H2342; first compound 0.4 µM): 0.501
relative viability (NCI-H2342; first compound 1.265 µM): 0.446
relative viability (NCI-H520; first compound 0.04 µM): 0.337
relative viability (NCI-H520; first compound 0.1265 µM): 0.416
relative viability (NCI-H520; first compound 0.4 µM): 0.348
relative viability (NCI-H520; first compound 1.265 µM): 0.271
relative viability (COR-L23; first compound 0.04 µM): 0.311
relative viability (COR-L23; first compound 0.1265 µM): 0.353
relative viability (COR-L23; first compound 0.4 µM): 0.279
relative viability (COR-L23; first compound 1.265 µM): 0.258
relative viability (NCI-H1355; first compound 0.04 µM): 0.786
relative viability (NCI-H1355; first compound 0.1265 µM): 0.837
relative viability (NCI-H1355; first compound 0.4 µM): 0.666
relative viability (NCI-H1355; first compound 1.265 µM): 0.323
relative viability (PC-14; first compound 0.04 µM): 0.234
relative viability (PC-14; first compound 0.1265 µM): 0.263
relative viability (PC-14; first compound 0.4 µM): 0.268
relative viability (PC-14; first compound 1.265 µM): 0.243
relative viability (HCC-827; first compound 0.04 µM): 0.559
relative viability (HCC-827; first compound 0.1265 µM): 0.714
relative viability (HCC-827; first compound 0.4 µM): 0.569
relative viability (HCC-827; first compound 1.265 µM): 0.398
relative viability (RERF-LC-KJ; first compound 0.04 µM): 0.9
relative viability (RERF-LC-KJ; first compound 0.1265 µM): 0.788
relative viability (RERF-LC-KJ; first compound 0.4 µM): 0.786
relative viability (RERF-LC-KJ; first compound 1.265 µM): 0.473
relative viability (NCI-H1437; first compound 0.04 µM): 0.666
relative viability (NCI-H1437; first compound 0.1265 µM): 0.633
relative viability (NCI-H1437; first compound 0.4 µM): 0.556
relative viability (NCI-H1437; first compound 1.265 µM): 0.279
relative viability (NCI-H1650; first compound 0.04 µM): 0.735
relative viability (NCI-H1650; first compound 0.1265 µM): 0.815
relative viability (NCI-H1650; first compound 0.4 µM): 0.65
relative viability (NCI-H1650; first compound 1.265 µM): 0.606
relative viability (H3255; first compound 0.04 µM): 0.574
relative viability (H3255; first compound 0.1265 µM): 0.57
relative viability (H3255; first compound 0.4 µM): 0.514
relative viability (H3255; first compound 1.265 µM): 0.507
relative viability (HCC-15; first compound 0.04 µM): 0.747
relative viability (HCC-15; first compound 0.1265 µM): 0.671
relative viability (HCC-15; first compound 0.4 µM): 0.56
relative viability (HCC-15; first compound 1.265 µM): 0.377
relative viability (PC-3 [JPC-3]; first compound 0.04 µM): 1.07
relative viability (PC-3 [JPC-3]; first compound 0.1265 µM): 1.07
relative viability (PC-3 [JPC-3]; first compound 0.4 µM): 1.15
relative viability (PC-3 [JPC-3]; first compound 1.265 µM): 0.919
